This is an account of results in the Kinase Knowledgebase extract (Sharma et al. 2016).

Each structure is given as a SMILES string.

This test deals with PIK3CG (UniProt P48736). As to the kind of experiment: Inhibition of PIK3CG Kinase Activity.
PIK3CG, sequence (P48736 whole entry, looked up): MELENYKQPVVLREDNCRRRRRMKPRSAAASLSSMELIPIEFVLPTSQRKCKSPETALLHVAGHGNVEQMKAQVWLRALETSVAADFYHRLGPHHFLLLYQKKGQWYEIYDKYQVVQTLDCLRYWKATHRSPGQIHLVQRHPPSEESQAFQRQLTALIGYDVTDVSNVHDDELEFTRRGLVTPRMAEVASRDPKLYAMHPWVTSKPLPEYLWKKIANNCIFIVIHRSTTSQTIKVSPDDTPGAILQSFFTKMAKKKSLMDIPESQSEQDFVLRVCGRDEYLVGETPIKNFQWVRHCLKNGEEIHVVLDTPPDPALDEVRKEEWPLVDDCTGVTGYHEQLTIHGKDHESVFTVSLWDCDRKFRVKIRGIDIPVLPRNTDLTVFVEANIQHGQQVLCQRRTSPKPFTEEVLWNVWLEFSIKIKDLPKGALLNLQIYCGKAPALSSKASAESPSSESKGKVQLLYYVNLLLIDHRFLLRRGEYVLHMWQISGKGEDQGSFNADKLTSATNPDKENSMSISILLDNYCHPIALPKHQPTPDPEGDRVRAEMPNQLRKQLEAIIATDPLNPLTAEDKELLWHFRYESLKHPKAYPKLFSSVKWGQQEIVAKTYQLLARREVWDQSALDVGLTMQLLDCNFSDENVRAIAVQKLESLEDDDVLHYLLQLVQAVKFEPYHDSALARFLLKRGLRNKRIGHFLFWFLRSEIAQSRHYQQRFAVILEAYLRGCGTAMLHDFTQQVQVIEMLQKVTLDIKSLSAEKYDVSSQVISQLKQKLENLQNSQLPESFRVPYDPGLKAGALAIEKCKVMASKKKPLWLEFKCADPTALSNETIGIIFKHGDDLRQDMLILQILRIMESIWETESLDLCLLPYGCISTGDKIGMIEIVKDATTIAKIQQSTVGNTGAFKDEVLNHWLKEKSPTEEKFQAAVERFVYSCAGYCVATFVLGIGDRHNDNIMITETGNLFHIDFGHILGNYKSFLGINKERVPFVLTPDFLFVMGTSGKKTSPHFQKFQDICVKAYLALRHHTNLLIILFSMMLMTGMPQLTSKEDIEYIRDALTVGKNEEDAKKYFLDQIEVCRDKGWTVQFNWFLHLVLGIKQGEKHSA
For the molecule `O=C1NC(=S)SC1=Cc1ccc2c(c1)N(CCc1ccc(C(F)(F)F)cc1C(F)(F)F)C(=O)CO2`, the IC50 (in general, the point on the concentration scale where inhibition reaches its midpoint) is 0.014 µM. Molecule `COc1ccc(CCCN2C(=O)COc3ccc(C=C4SC(=O)NC4=O)cc32)cc1` displayed an IC50 of 0.018 µM. Then `CN1C(=O)COC2C=CC(C=C3OC(=S)NC3=O)=CC21` (stereo not given), with 0.016 µM; and `CC(C)(C)c1cc(CN2C(=O)COc3c(F)cc(C=C4SC(=S)NC4=O)cc32)cc(C(C)(C)O)c1`, with 0.005 µM. For `CC(C)(C)c1cc(C(C)(C)C)nc(CN2C(=O)COc3c(F)cc(C=C4SC(=S)NC4=O)cc32)n1`, the IC50 came out at 1.24 µM. Then `CCOC(=O)N1CCC(Cc2ccc(CN3C(=O)COc4ccc(C=C5SC(=O)NC5=O)cc43)cc2)CC1`, with 0.032 µM; and `O=C1NC(=S)SC1=Cc1cc(F)c2c(c1)N(CCCN1CCOCC1)C(=O)CO2`, with 0.055 µM. Molecule `CC(C)(C)c1cc(O)cc(CN2C(=O)COc3ccc(C=C4SC(=S)NC4=O)cc32)c1` gave an IC50 of 0.022 µM. Take `CC1CC(C)CN(CCCN2C(=O)COc3c(F)cc(C=C4SC(=S)NC4=O)cc32)C1` (stereo not given): the IC50 is 0.0185 µM.

With `O=C1NC(=S)SC1=Cc1ccc2c(c1)N(CC1CCCCC1)C(=O)CO2`, the IC50 came to 0.002 µM. In the case of `CCN1C(=O)COc2ccc(C=C3SC(=S)NC3=O)cc21`, the IC50 turned out to be 0.042 µM. `CCOC(=O)N1CCC(Cc2ccc(CN3C(=O)COc4ccc(C=C5SC(=S)NC5=O)cc43)cc2)CC1` yielded an IC50 of 0.052 µM. Then `O=C1NC(=S)SC1=Cc1cc(F)c2c(c1)N(Cc1ccc(F)c(Cl)c1)C(=O)CO2`, with 0.002 µM; and `CC(C)(C)c1cc(C(C)(C)C)nc(CN2C(=O)COc3ccc(C=C4SC(=S)NC4=O)cc32)n1`, with 2.07 µM. Under `CC(C)(C)OC(=O)N1CCC(C(=O)CN2C(=O)COc3ccc(C=C4SC(=S)NC4=O)cc32)CC1` stands 3.18 µM.
